Test results published in the NIST ThermoML archive (doi:10.1016/j.jct.2008.12.022).
Numbers after ± are expanded uncertainties.

Conditions: 101.33 kPa, Liquid; for viscosity: Capillary tube (Ostwald / Ubbelohde) method; for mass density: Pycnometric method

Row | Structure (SMILES) | viscosity (303.15 K) | mass density (303.15 K) | viscosity (313.15 K) | mass density (313.15 K) | viscosity (323.15 K) | mass density (323.15 K) | viscosity (333.15 K) | mass density (333.15 K) | viscosity (343.15 K) | mass density (343.15 K)
1 | CC(O)CO (stereo not given) [1,2-propanediol] | 32.4 ± 0.73 mPa·s | 1029 ± 1 kg/m3 | 19.12 ± 0.45 mPa·s | 1021 ± 1 kg/m3 | 12.1 ± 0.28 mPa·s | 1014 ± 1 kg/m3 | 8.19 ± 0.18 mPa·s | 1006 ± 1 kg/m3 | 5.704 ± 0.13 mPa·s | 999 ± 1 kg/m3
2 | OCCOCCOCCO [triethylene glycol] | 29.27 ± 0.7 mPa·s | 1116 ± 2 kg/m3 | 18.96 ± 0.46 mPa·s | 1109 ± 2 kg/m3 | 12.96 ± 0.31 mPa·s | 1101 ± 2 kg/m3 | 9.288 ± 0.22 mPa·s | 1093 ± 2 kg/m3 | 6.906 ± 0.17 mPa·s | 1086 ± 2 kg/m3
